# What was measured:
# [1] = system: S. epidermidis; test: Contact germicidal efficiency (sterilization time); type: cell-based, Staphylococcus epidermidis; details: S. epidermidis
# Protocol: CONTACT GERMICIDAL EFFICIENCY OF N-CHLORAMINES AS A FUNCTION
# ^a Time intervals screened 0.5, 1, 2, 3, 4 and 5 minutes.
# ^a Time intervals screened 0.5, 1, 2, 3, 4, 5, 6, 7, 8, 9 and 10
# ^a Time intervals screened 0.5, 1, 2, 3, 4, and 5 minutes.
# ^b Time intervals screened 0.5, 1, 2, 3, 4, 5, 6, 7, 8, 9 and 10
# Immediately preceding the screen, the compound is weighed and diluted with a buffer or other solvent to give the final concentration desired. The buffer or solvent chosen depends on the conditions of the screen and could be one of the following: 0.1 M NaOAc, pH 4.6; 0.1 M NaH2 PO4, pH 7.0; 0.1 M Na2 B4 O7, pH 8.8; 35% methanol in one of the aforementioned buffers; 10% Triton × 100 in buffer, etc.
# The positive chlorine concentration of the test solution is then determined iodometrically.
# Media used for the Screen are Nutrient Broth, BBL# 11479 and Nutrient Agar, BBL# 11472 prepared according to label directions. The broth is dispensed in 75 ml amounts of flasks for overnight cultures and in 5 ml amounts to culture tubes for subculturing during the Screen. Agar plates are prepared as usual.
# Overnight cultures are prepared by inoculating from stock cultures into the 75 ml flasks of nutrient broth and incubating for 15 hours at 37° C.
# The iodometrically characterized test solution is dispensed in 5 ml amounts to seven small stoppered flasks. The organisms are screened one at a time as follows:
# A 0.2 ml portion of the overnight culture is inoculated into 5 ml of 0.9% NaCl for use in controls. A 0.2 ml portion of the overnight culture is inoculated into a flask containing 5 ml of the test solution, an automatic timer is simultaneously triggered and the solution mixed. At time intervals of 30 seconds, 1, 2, 3, 4, 5, 6, 7, 8, 9, and 10 minutes a loopful of the inoculated solution is subcultured into 5 ml of sterile nutrient broth and mixed by a Vortex Genie Mixer, the high dilution serving to stop the action of the compound. At the end of the ten minute screen, the entire procedure is repeated for each of the remaining six organisms. All of the subculture tubes are incubated at 37° C and checked for signs of growth by turbidity at 24 hr., 48 hr., 3, 5, and 7 days. The earliest subculture time at which no growth is present in the subculture tube is considered the endpoint and is recorded as that time, e.g., 7 minutes.
# The test solution is prepared and characterized as above but is made up at twice the concentration desired. The solution is diluted 1:1 with Rehydrated Tissue Culture Dessicated Horse Serum, Difco #5357-72 and dispensed in a 5 ml amount to a small flask. The mixture is incubated at Room Temperature for 30 minutes to allow denaturation of the compound by the serum and then screened as above.
# The 5 ml mixture of serum and test solution are prepared in sequence to allow as close to 30 minutes as possible before the beginning of the screen of each organism.
# Bacteria: Staphylococcus aureas Smith (or 209), Escherichia coli AB 1932-1, 1100/B22 and Vogel, Streptococcus pyogenes C203 Salmonella typhimurium 14028, Bacillus subtilis 6051-1, Klebsiella pneumoniae 10031, Pseudomonas aeruginosa 9027, Bordetella bronchiseptica 4617 and Staphylococcus epidermidis 12228.
# [2] = system: C. albicans; test: Minimal inhibitory concentration (MIC), Example V; type: cell-based; details: Candida albicans
# Excerpt: MINIMAL INHIBITORY CONCENTRATION OF 2-AMINO-2-METHYL-1-PROPYL […]
# THE ANTIBACTERIAL SCREEN - EXAMPLE V
# [3] = system: S. pyogenes; test: Minimal inhibitory concentration (MIC), Example V; type: cell-based; details: Streptococcus pyogenes
structure (smiles),measurement,setting,value
"CC(C)(COC(=O)C(C)(C)C)NCl [IV c, 2-N-Chloroamino-2-methyl-1-propyl 2,2-dimethylproprionate]",Sterilization Time,"[1]; Example X, pH 4.6, no horse serum, IV c 404 ppm (69 PPMCl+), IV g 489 ppm (143 PPMCl+)",0.5 min
same,Sterilization Time,"[1]; Example X, pH 7.0, no horse serum, IV c 1886 ppm (323 PPMCl+), IV g 409 ppm (120 PPMCl+)",3 min
same,Sterilization Time,"[1]; Example X, pH 9.3, no horse serum, IV c 1704 ppm (292 PPMCl+), IV g 319 ppm (94 PPMCl+)",4 min
same,Sterilization Time,"[1]; Example Y, pH 4.6, in presence of horse serum, 468 ppm (80 PPMCl+)",> 10 min
same,MIC,[2],> 250 µg/mL
same,MIC,[3],> 125 µg/mL

# From US4092420A, “Novel soft N-chloroamino alcohol derivatives exhibiting antibacterial activity” (INTERx Research Corporation, priority 1977, dated 1978)
